The test system of data set [1] is haldol-induced catalepsy. As to the kind of experiment: Haldol-induced catalepsy model of Parkinson's disease, bar test. In kind it is in vivo. As to conditions: mice. The procedure:
The compounds of the invention were evaluated in a model of Parkinson's disease, the haldol-induced catalepsy model in mice. Catalepsy was assessed using the bar test in mice submitted to acute administration of the dopamine D2 receptor antagonist haloperidol (1mg/kg, intraperitoneally or ip). Mice (male RjOrl: Swiss mice, weighing 30 - 35 g at the beginning of the experiment) placed in group of 5 in Plexiglas cages, were injected with haloperidol (1 mg/kg ip). […] The catalepsy response of one mouse was measured as the time the animal maintained an imposed posture with both forelimbs placed on a horizontal 0.9cm-diameter wire bar suspended 4cm above a platform. The end point of catalepsy was considered to occur when both forelimbs were removed from the bar, the mouse climbed onto the bar or if the animal moved its head in an exploratory manner. A cutoff time of 180 seconds was applied. The degree of catalepsy was scored 60 minutes after haloperidol administration and continued at 30 or 60 minutes intervals for a total of 240-300 minutes. Between measurements, the animals were returned to their home cages. This procedure was adapted from the literature: (e.g. Pires et al., Braz J Med and Biol Res 38, 1867-1872, 2005; Shiozaki et al., Psychopharmacology 147, 90-95, 1999). Parent compound and corresponding vehicle, given either intraperitoneally (ip) or orally (po), were administered 30 minutes after haldol administration. Prodrugs and corresponding vehicle were injected 4h before haldol administration. Prodrug dose is expressed in equivalent of parent compound.
Data analysis: the figures 2 and 3 show the mean time of latency spent on the bar for each group of animals. At each time-point, the anti-cataleptic effects of parent compound and prodrugs were compared to vehicle-treated groups using 1-factor ANOVA test followed by the Dunnett's test. Datapoints marked with "*" in figures 3 or 4 indicates p<0.05; "**" indicates p<0.01.

Data set [2] is described as follows: In vivo pharmacokinetic evaluation (ACPT-I in plasma, LC/MS/MS). As to conditions: rat, po, 30 mg/kg.
The mark [3] stands for this setting: 100mg/kg orally (dose in equivalent of parent compound), given 4h before haldol (1 mg/kg ip).

Each structure is given as a SMILES string.

As to `CC(C)C[C@H](N)C(=O)N[C@@]1(C(=O)O)C[C@H](C(=O)O)[C@H](C(=O)O)C1` [Example 1, (1S, 3R, 4S)-1-{[(2'S)-2'-amino-4'-methylpentanoyl]amino}cyclopentane-1,3,4-tricarboxylic acid], the anticataleptic activity result in data set [1] (setting [3]) was “significantly reduced the haldol-induced cataleptic response”.
As to `N[C@@]1(C(=O)O)C[C@H](C(=O)O)[C@H](C(=O)O)C1` [ACPT-I, (1S, 3R, 4S) -1-aminocyclopentane-1,3,4-tricarboxylic acid], the bioavailability in data set [2] worked out at 1.14%. The anticataleptic activity result in data set [1] (30mg/kg ip, given 30 minutes after haldol (1 mg/kg ip)) is recorded as “significantly reduced catalepsy”; in data set [1] (100mg/kg oral administration, given 30 minutes after haldol (1 mg/kg ip)) it was “no anticataleptic activity”.
Take `C[C@H](N)C(=O)N[C@@]1(C(=O)O)C[C@H](C(=O)O)[C@H](C(=O)O)C1` [Example 3, (1S, 3R, 4S)-1-{[(2'S)-'2-aminopropanoyl]amino}cyclopentane-1,3,4-tricarboxylic acid]: the anticataleptic activity result in data set [1] (setting [3]) is “significantly reduced the haldol-induced cataleptic response”.

For the origin of these results see patent EP1992637A1, “1-Aminocyclopentane-1,3,4- tricarboxylic acids derivatives” (priority 2007, dated 2008).
